Assay results published in patent US20150283098A1, “PRENYLATED CHALCONE FORMULATION FOR THE TREATMENT OF BEES” (BIOACTIVE-TECH SP. Z O.O., priority 2012, published 2015).

Tests used:
[1] = test system: bees; experiment: Example 3: effect of xanthohumol formulation itself on bee colonies (vigour, hygienic instinct, toxicity); assay type: in vivo
Procedure: Group III—bee colonies treated with the protective formulation in the form of spray without poisoning with Actara. 20 mg of xanthohumol were dissolved in 1 ml of ethyl alcohol and subsequently added to 0.5 l of sugar syrup in water in a ratio of 1:1, and four hives were sprayed with use of a spraying machine so that one bee colony received a dose of about 5 mg of xanthohumol. Actara was not used in this experiment.
1 g of xanthohumol dissolved in 10 ml of ethyl alcohol which was then added to 0.125 l of sugar syrup in water in a ratio 1:1 and it was sprayed on 1 hive so that one bee colony received a dose of about 1000 mg of xanthohumol (1 hive). After 24 hours bee colony was poisoned by a contact route. Poisoning was carried out in the form of small-molecule spray which was applied on each frame with bees.

[2] = test system: focal ischaemia caused by MCAO in rats; settings: cited from earlier work
[3] = test system: bees; experiment: Example 3: viability of bee colonies poisoned with thiamethoxam (Actara) after xanthohumol spray; assay type: in vivo
Procedure: The experiment was carried out in Loma-Zawady Przedmieście, Poland in an apiary consisting of 25 colonies based in hives of Dadant type (frame 435×300 mm). The hives had wire-net, detachable bottom in the form of a diagnostic tray. The nest body of the hives consisted of 10 frames.
Bee colonies in the form of separated colonies were purchased from local producer. Each separated colony consisted of 3 frames of brood and frames with supply of bee bread and honey. All frames were settled in “black” by bees.
The experiments were carried out on 25 swarms of bees divided into VI groups. Groups I to V, consisted of 4 hives, each.
In groups I-V, xanthohumol at the concentration of 40 mg/l was used as a protective formulation. Actara at the concentration of 0.4 g/l was used for poisoning of insects (the concentration used in spraying of beetle).
Group IV—bee colonies treated with the protective preparation in the form of spray. Poisoning with Actara by alimentary route. 20 mg of xanthohumol were dissolved in 1 ml of ethyl alcohol and subsequently added to 0.5 l of sugar syrup in water in a ration 1:1 and four hives were sprayed with spraying machine so that one bee colony received a dose of 5 mg of xanthohumol. Poisoning with Actara given with 1:1 syrup (1 kg of sugar+1 l of water).
Group V—bee colonies treated with the protective preparation in the form of spray. Poisoning with Actara by contact route. 20 mg of xanthohumol were dissolved in 1 ml of ethyl alcohol and subsequently added to 0.5 l of sugar syrup in water in a ratio 1:1 and four hives were sprayed with the spraying machine so that one bee colony received a dose of about 5 mg of xanthohumol. Poisoning was carried out in the form of small-molecule spraying which was used for each frame with bees.
In this group, a formulation of different xanthohumol concentrations was used, and Actara (thiametoxam 25%) for poisoning of bees, at a dose of 0.2 g/l (concentration used by fruit farmers) was used. The control group were bees subjected only to spraying procedure with Actara.
Group VI a)—bees were protected with the formulation of xanthohumol concentration of 0.08 mg/l.
0.01 mg of xanthohumol was dissolved in 1 ml of ethyl alcohol and subsequently added to 0.125 l of sugar syrup in water in a ratio 1:1 and 1 hive was sprayed so that one a bee colony received a dose of about 0.01 mg of xanthohumol. After 24 hours, the bee colony was poisoned by a contact route. The poisoning was carried out in the form of small-molecule spraying which was used for each frame with bees.
Group VI b)—the bees were protected with the preparation of xanthohumol in concentration 1.6 mg/l.
0.2 mg of xanthohumol was dissolved in 1 ml of ethyl alcohol and subsequently added to 0.125 l of sugar syrup in water in a ratio 1:1 and 1 hive was sprayed so that one bee colony received a dose of about 0.2 mg of xanthohumol. After 24 hours, the bee colony was poisoned by the contact route. Poisoning was carried out in the form of small-molecule spraying which was applied on each frame with the bees.
Group VI c)—the bees were protected with a formulation of xanthohumol in concentration 16 mg/l.
2 mg of xanthohumol dissolved in 1 ml of ethyl alcohol which was added to 0.125 l of sugar syrup in water in a ration of 1:1 in duplicate and it was sprayed on 2 hives so that one bee colony received a dose of about 2 mg of xanthohumol. After 24 hours, the bee colonies were poisoned by the contact route. The poisoning was carried out if the form of a small-molecule spray which was applied on each frame with bees.
Group VI d)—the bees were protected with a preparation of xanthohumol concentration 8 g/1.
1 g of xanthohumol dissolved in 10 ml of ethyl alcohol which was then added to 0.125 l of sugar syrup in water in a ratio 1:1 and it was sprayed on 1 hive so that one bee colony received a dose of about 1000 mg of xanthohumol (1 hive). After 24 hours bee colony was poisoned by a contact route. […]

[4] = test system: virus of sacbrood disease and mycosis and Nosemosis; experiment: Other studies in Poland: colonies with sacbrood disease, mycosis and Nosemosis; assay type: in vivo, bees; settings: 5 mg per one bee colony
Procedure: The studies prowed that the formulation containing xanthohumol (at a dose of 5 mg per one bee colony) may be used also for the treatment of the virus of sacbrood disease and mycosis and Nosemosis. […] The increased hygienic instinct was shown by studies carried out on bee colonies by a dozen of beekeepers in Poland.

[5] = test system: bees; experiment: Example 2: viability and behaviour of bees in apiary hives with low concentration of imidaclopride spray; assay type: in vivo
Procedure: Similar studies as described in example 1 were carried out in three bee hives containing ˜40,000 bees. Frames with bees (FIG. 4) were sprayed with imidaclopride dissolved in water at a concentration of 125 μl/l (microlitres per litre). It is a half of imidaclopride concentration in Kohinor 200 SL used in cultivation of vegetables in soil. The purpose of the study was to investigate low doses of imidaclopride to which mainly are exposed the bees collecting nectar during agrotechnological procedures.
The bees were studied in two groups. […] The studied group were bees which were given protective xanthohumol preparation in […] (milligram per litre) syrup for one week and then treated with imidaclopride spray at the above mentioned concentration (FIGS. 6A, 6B and 6C).

[6] = test system: bees; experiment: Example 1: viability of bees in experimental queen cages with high concentration of imidaclopride; assay type: in vivo; settings: 10 mg/l xanthohumol in syrup for three days, then imidaclopride (Kohinor 200 SL) 375 μl/l; controls died in 100%
Procedure: The experiment was carried out in Lublin, Poland in an apiary containing 250 bee colonies.
The influence of xanthohumol concentration in sugar syrup on the viability of bees was studied on samples of 100 bees placed in a special cage for studies, (FIG. 1). The bees were taking a protective formulation for three days in the form of xanthohumol dissolved in standard sugar syrup in three concentrations: 5, 10 and 20 mg of xanthohumol/1, respectively. Each concentration was studied in three independent small hives. After three days of taking the protective formulation, the bees received imidaclopride (in Kohinor 200 SL) in a concentration of 375 μl/l in a […] (similar doses are used for controlling of insects in vegetable cultivations). As a control group, three small hives of 100 bees each were used, which were not fed with xanthohumol containing preparation. All xanthohumol concentrations and the control group were studied in thriplicate. Xanthohumol obtained by chromatographic method from hop post-extraction waste was used. The purity of the preparation was ˜99% (FIG. 3).

[7] = cited from earlier work
[8] = test system: Nosema spp. (apis and cerenae); experiment: Counting of Nosema cells under a microscope in blended dead bees; assay type: in vivo
Excerpt: (§1) (apis and cerenae). It was found on the basis of studies (initial results) that the amount of spores observed under a microscope after the use of Xn decreased by 60% on average in relation to control. Observation under a microscope of blended dead bees was related to counting of Nosema cells in the suspension of distilled water. […] The formulation was also investigated in several bee colonies in apiary infected with Nosemosis.

[9] = test system: bees; experiment: Stocking of a hive contaminated with a pesticide with a protected colony; assay type: in vivo; settings: xanthohumol in syrup 2 g/l by spray; unprotected colony collapsed
Excerpt: Furthermore, it was found on the basis of the studies with the use of the formulation according to the invention, that there is a possibility of rehabilitating the protected bees in these regions which were contaminated by pesticides, where it has not been possible so far. In the hive where a control bee colony unprotected with the preparation was stocked with new unprotected colony, it collapsed within a short time. A hive contaminated with a pesticide is poisonous for bees even after several weeks.

[10] = test system: Nosema spp.; experiment: Spraying of bee colonies in apiary infected with Nosemosis; assay type: in vivo; settings: several days after spraying with formulation containing xanthohumol
Excerpt: as §1

COc1cc(O)c(CC=C(C)C)c(O)c1C(=O)/C=C/c1ccc(O)cc1 [xanthohumol]
behaviour and hygienic instinct of bee colony ([1]; Group III: spray, xanthohumol 40 g/l, about 5 mg per colony, no Actara): improved the behaviour of bee colony and significantly influenced hygienic instinct of a bee
Varroa destructor mites on the diagnostic tray ([1]; Group III: spray, xanthohumol 40 g/l, no Actara, not observed in control hives): Dead mites Varroa destructor were also observed
symptoms increasing the vigour ([1]; Group VI a: 0.01 mg xanthohumol per colony): no symptoms increasing the vigour
toxic effects of xanthohumol preparation on bees ([1]; Group VI d: 1 gram per hive (8 g/l), inspected 24 hours after use, before poisoning): did not cause any toxic effects
movement of bees at the beehive entrance ([1]; all studied concentrations of xanthohumol, compared to control hives): increased movement of bees was observed at the beehive entrance
brooding of bee mothers compared with the control ([1]; first half of August, hives protected with the preparation): significant increase
area of brain ischaemic necrosis [2]: significantly decreased
losses of bees ([3]; Group IV: xanthohumol 40 mg/l spray, Actara 0.4 g/l alimentary route after 24 hours): 35%
memory / flights for pollen of surviving colonies ([3]; Group IV: xanthohumol 40 mg/l, Actara 0.4 g/l alimentary route): did not lose memory
losses of bees ([3]; Group V: xanthohumol 40 mg/l spray, Actara 0.4 g/l contact route after 24 hours): 10%
memory / flights for pollen of surviving colonies ([3]; Group V: xanthohumol 40 mg/l, Actara 0.4 g/l contact route): did not lose memory and carried pollen
behaviour of the colony ([3]; Group VI a survivors, a week after post-poisoning spraying with xanthohumol 1.6 mg/l, dose of 2 mg): returned to normal
time until bees restarted flights around the hive ([3]; Group VI a survivors, sprayed after poisoning with xanthohumol 1.6 mg/l, dose of 2 mg): 48 h
part of bee colony that did not survive ([3]; Group VI a: xanthohumol 0.08 mg/l (0.01 mg per colony), Actara 0.2 g/l contact after 24 hours): 60%
restart of flights for pollen by surviving bees ([3]; Group VI a: xanthohumol 0.08 mg/l, Actara 0.2 g/l): did not restart flights for pollen either after 24 hours or 48 hours
part of bee colony that did not survive ([3]; Group VI b: xanthohumol 1.6 mg/l (0.2 mf per colony), Actara 0.2 g/l contact): about 40%
time until surviving bees restarted flights for pollen ([3]; Group VI b: xanthohumol 1.6 mg/l, Actara 0.2 g/l): 48 h
symptoms of poisoning ([3]; Group VI c: seven days from poisoning): do not show any symptoms of poisoning
survival of bees ([3]; Group VI c: xanthohumol 16 mg/l (2 mg per colony), Actara 0.2 g/l contact): almost all bees survived
time until surviving bees restarted flights for pollen ([3]; Group VI c: xanthohumol 16 mg/l, Actara 0.2 g/l): 24 h
symptoms of poisoning ([3]; Group VI d: after seven days): did not show any symptoms of poisoning
losses of bees ([3]; Group VI d: xanthohumol 8 g/l (1 g per colony), Actara 0.2 g/l): 10%
bees survived ([3]; Group VI d: xanthohumol 8 g/l (1 g per colony), Actara 0.2 g/l contact after 24 hours): 90%
effect in colonies with mycosis and Nosemosis [4]: fast purification of the nest from dead insects occurred
effect in colonies with sacbrood disease [4]: the colony started to work
behaviour of bees ([5]; two weeks after the administration of imidaclopride): did not show any differences in behaviour compared to the healthy hives
bees died ([5]; xanthohumol 10 mg/ml (milligram per litre) syrup for one week, then imidaclopride spray 125 μl/l): ~10%
time from spraying until bees started to fly to the pasture and bring pollen ([5]; xanthohumol syrup one week, imidaclopride spray 125 μl/l): Three
viability of bees [6]: ~45%
water solubility [7]: poor
decrease of amount of Nosema spores observed under a microscope in relation to control ([8]; after the use of Xn, on average, initial results): 60%
number of Nosema pieces in suspension of blended dead bees ([8]; after using the formulation for 1 week, bees without Xn 30±3): 8±2 pieces
fate of protected colony put into pesticide-contaminated hive [9]: still lived and did not show symptoms of poisoning
typical symptoms of Nosema spp. infection (soiling of frames and front wall of the hive with feces) [10]: disappeared
